In publication PMC10244169, “Psychedelics promote plasticity by directly binding to BDNF receptor TrkB” (Nature Neuroscience, 2023):

Key:
pmTOR = assay: Western blot of mTOR phosphorylation in cortical neurons; format: cell-based, rat; details: LSD 100 nM
Protocol: In a separate set of experiments to examine the effect of 5-HT2A activation, M100907 (100 nM) was administered as a 10 min pretreatment and remained in the medium for the rest of the experiment. Next, cells were lysed and centrifuged. […] The co-immunoprecipitation was carried out as previously described[11],[23],[24] with minor modifications. Briefly, Magnetic Dynabeads Protein G (Invitrogen, 10004D) were coated with anti-TrkB antibody (R&D Systems, AF1494) at 200 ng of antibody per 1 µl of beads in rotation (2 h, 4 °C). Finally, lysates were mixed with the coated beads (100 µg of total protein per 15 µl of beads) and incubated in rotation (overnight, 4 °C).
Proteins were separated according to their molecular weight by SDS–PAGE and transferred to a polyvinylidene fluoride membrane. Membranes were incubated with the following primary antibodies (all 1:1,000 in 3% BSA in TBS-T, overnight, 4 °C): anti-TrkB (R&D Systems, AF1494), anti-β-actin (Sigma-Aldrich, A1978), anti-phospho-mTOR (Cell Signaling Technology, 5536S), anti-phospho-p44/42 MAPK (Erk1/2) (Cell Signaling Technology, 9106S), anti-mTOR (Cell Signaling Technology, 2972S) and anti-p44/42 MAPK (Erk1/2) (Cell Signaling Technology, 9102S). […] Protein bands were visualized using enhanced chemiluminescent substrate (Thermo Scientific, 32132, ECL Plus) and imaged with a charge-coupled device camera (G:BOX, Syngene).

TrkB pY816 = assay: pY816 in PFC and hippocampus after single LSD injection (ELISA, immunoblot); format: in vivo; details: mouse brain samples, single administration
Protocol: The phosphorylation of TrkB (pY816) and interaction with PLCγ1 were assessed by enzyme-linked immunosorbent assay (ELISA) as previously described[11],[80],[81] with minor modifications. Briefly, white 96-well plates (PerkinElmer, OptiPlate 96F-HB) were precoated with goat anti-TrkB (R&D systems, AF1494; 1:500, overnight, 4 °C) antibody in carbonate buffer (pH 9.8) and blocked with 3% BSA in PBS with 0.1% Tween-20 (PBS-T) for 2 h at room temperature. […] Samples were incubated overnight at 4 °C, and 24 h later plates were washed with PBS-T and incubated with either rabbit anti-phospho-TrkB(Tyr816) (Cell Signaling Technology, 4168S; 1:2,000), rabbit anti-PLCγ1 (Cell Signaling Technologies, 5690S; 1:2,000) or rabbit anti-Trk (Cell Signaling Technologies, 92991; 1:2,000) antibodies overnight at 4 °C. After washing with PBS-T, plates were incubated with HRP-conjugated goat anti-rabbit (Bio-Rad, 170–5046; 1:5,000, 1 h, room temperature) antibody, followed by more washing with PBS-T. Finally, the chemiluminescent signal was read after brief incubation with Pierce ECL substrate (Thermo Fisher Scientific, 32106). Luminescence from blank wells that contained all reagents but the sample lysates was used to determine background signal. […]

TrkB Y433F = target: T1, TrkB Y433F (Rattus norvegicus, UniProt Q63604, Y433F); assay: ^3H-LSD saturation binding, TrkB mutant
T1 construct: expressed in transfected cells; host or cells: HEK293T
T1 sequence (Q63604 32-821 Y433F): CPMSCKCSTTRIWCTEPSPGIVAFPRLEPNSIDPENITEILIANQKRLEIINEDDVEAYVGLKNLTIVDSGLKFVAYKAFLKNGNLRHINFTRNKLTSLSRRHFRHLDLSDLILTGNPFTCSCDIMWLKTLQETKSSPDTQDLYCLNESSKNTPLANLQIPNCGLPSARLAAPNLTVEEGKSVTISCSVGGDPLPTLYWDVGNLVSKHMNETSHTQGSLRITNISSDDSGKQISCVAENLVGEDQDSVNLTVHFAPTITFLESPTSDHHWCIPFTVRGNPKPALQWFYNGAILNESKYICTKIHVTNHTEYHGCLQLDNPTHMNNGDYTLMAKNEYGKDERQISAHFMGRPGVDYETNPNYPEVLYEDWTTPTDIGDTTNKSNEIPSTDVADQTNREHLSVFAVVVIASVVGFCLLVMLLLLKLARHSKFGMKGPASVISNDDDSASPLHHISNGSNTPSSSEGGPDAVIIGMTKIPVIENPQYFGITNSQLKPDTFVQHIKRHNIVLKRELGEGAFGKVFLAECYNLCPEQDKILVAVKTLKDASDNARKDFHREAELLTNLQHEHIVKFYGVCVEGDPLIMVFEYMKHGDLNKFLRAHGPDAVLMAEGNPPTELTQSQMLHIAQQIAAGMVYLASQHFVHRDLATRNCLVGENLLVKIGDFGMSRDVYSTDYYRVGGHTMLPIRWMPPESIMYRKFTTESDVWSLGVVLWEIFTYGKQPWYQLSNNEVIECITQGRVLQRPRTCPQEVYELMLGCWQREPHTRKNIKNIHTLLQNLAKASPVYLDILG
Protocol: (§1) Binding assays were performed as previously described with minor modifications. […] Samples from mouse embryo (E18) brains were also lysed, vortexed, sonicated and centrifuged for binding assays. Plates were then washed with PBS. […] For the competition binding assays with biotinylated R,R-HNK, the amino-biotinylation of R,R-HNK was performed using a commercial kit (Thermo Scientific, EZ-Link NHS-PEG4 Biotinylation Kit, 21455) and the reaction monitored by MS. A mixture of biotinylated R,R-HNK (10 µM) and unlabeled compounds (1 pM to 10 µM) in PBS was added to the 96-well plates containing the immunoprecipitated TrkB and incubated for 1 h at room temperature. […] Luminescence was determined via streptavidin conjugated with horseradish peroxidase (HRP; Thermo Fisher Scientific, 21126; 1:5,000, 1 h at room temperature) in reaction with the Pierce ECL substrate (Thermo Fisher Scientific, 32106). Luminescence from blank wells that contained all reagents but the sample lysates was used to determine nonspecific binding. To obtain the binding curves, results from binding assays were fitted to the equation of specific binding with Hill slope from GraphPad Prism 9.2. To calculate koff values, results were fitted to the equation of dissociation of one phase exponential decay from GraphPad Prism 9.2.

TrkB V437A = target: T2, TrkB V437A (Rattus norvegicus, UniProt Q63604, V437A); assay: ^3H-LSD saturation binding, TrkB mutant
T2 construct: expressed in transfected cells; host or cells: HEK293T
T2 sequence (Q63604 32-821 V437A): as the sequence (Q63604 32-821 Y433F) above, with F402Y, V406A counted along it
Protocol: as §1

`CCN(CC)C(=O)C1C=C2c3cccc4[nH]cc(c34)CC2N(C)C1` (centres unmarked) [LSD, lysergic acid diethylamide] was tested, and the “phosphorylation of mTOR” value (pmTOR) was “promotes phosphorylation of mTOR for at least 1 h”, the “TrkB phosphorylation (pY816)” value (TrkB pY816) was “increases phosphorylation of TrkB tyrosine 816 (pY816)” and the Kd (TrkB Y433F; Kd (best-fit, 1a), Y433F, unit inferred) was 24.6 nM. For the same compound, the Kd (TrkB Y433F; Kd, ^3H-LSD saturation, Y433F) was 24.6 ± 4.68 nM, the “Bmax (best-fit, 1a)” value (TrkB Y433F; Y433F) was 91.95 and the “h (best-fit, 1a)” value (TrkB Y433F; Y433F) was 1.98. The LSD binding (TrkB Y433F; Y433F point mutation) was “impairs LSD binding”, the “Bmax (best-fit, 1a)” value (TrkB V437A) was 88.07 and the “h (best-fit, 1a)” value (TrkB V437A) was 1.581. It also gave a Kd (TrkB V437A; Kd (best-fit, 1a), unit inferred) of 25.9 nM and a Kd (TrkB V437A; Kd, ^3H-LSD saturation) of 25.9 ± 10.6 nM.
